Experimental findings from patent US20240262844A1, “PYRIDINIUM SALTS AND METHODS OF USE” (UNIVERSITY OF WYOMING, priority 2023, published 2024) are described below.

For this data set, the system named is HEK293T cells. Kind of data set: In-situ chemoproteomic tryptophan profiling of live HEK293T cells (peptide-level enrichment). It counts as cell-based, Human. The procedure:
Cell culture and in-situ tryptophan probe treatment: Cell lines were cultured at 37° C. with 5% C02. Human embryonic kidney 293 cells expressing a mutant version of the SV40 large T antigen (HEKT293T cells) were grown in Dulbecco's Modified Eagle Medium (DMEM, Gibco) supplemented with 10% fetal bovine serum and 1% penicillin/streptomycin. For in-situ labeling, cells were grown to 90% confluence, washed with Dulbecco's phosphate buffered saline (DPBS), treated with 100x stocks of the tryptophan probes (the pyridinium salts) in OptiMem (GibCo) to generate final concentrations (0 μM, 1 μM, 10 μM, and 100 μM) in 1% dimethylsulfoxide (DMSO). Cells were incubated for 1 hour at 37° C. with 5% C02 followed by photo-activation at the respective wavelengths for 20 minutes at 4° C. Cells were harvested with a cell scraper, washed 3× with DPBS, and pellets were stored at −80° C. until further use. The following light sources were used for photo-activation: • Pyridinium salt 1a (also called, probe 1a): wavelength=302 nm; light source=Analytikjena, UVP 3UV Lamp, 8W. • Pyridinium salt 1b (also called, probe 1b): wavelength=320 nm; light source=Analytikjena, UVP 3UV Lamp, 8W, equipped with 320 nm long-pass filter. • Pyridinium salt 2b (also called, probe 2b): wavelength=440 nm; light source=Kessil PR-160L-440 nm LED, 45W. • Pyridinium salt 2d (also called, probe 2d): wavelength=440 nm; light source=Kessil PR-160L-440 nm LED, 45W.
In-situ tryptophan probe sample processing for peptide-level characterization: Cell pellets were lysed via sonication (QSonica) at 50% amplitude, 2 seconds ON, 3 seconds OFF, 30 seconds in 40 mM HEPES pH 7.5 (4-(2-hydroxyethyl)-1-piperazineethanesulfonic acid), 1.5 mM magnesium chloride (MgCl2), 1% Sodium dodecyl sulfate (SDS), 0.8% NP-40 (also known as nonyl phenoxypolyethoxylethanol), and 1x protease inhibitors (Thermo). Protein concentration was determined by BCA (Pierce). 400 μg protein lysate were taken for copper-catalyzed azide-alkyne cycloaddition (CuAAC) reactions with 100 μM of the acid cleavable DAPBS Biotin Alkyne (Click Chemistry Tools), 250 μM copper sulfate (CuSO4), 500 μM BTTP (C20H34N10O2) (Click Chemistry Tools), and 2.5 mM ascorbate and incubated for 60 minutes at R.T. Samples were precipitated with methanol:chloroform and re-suspended in 50 mM HEPES pH 8.0 containing 1% RapiGest SF (Waters). The samples were reduced with 10 mM dithiothreitol (DTT) (Pierce) and alkylated with 25 mM iodoacetamide (Pierce). The samples were diluted down to 0.1% RapiGest SF and treated with 4 μg Trypsin/LysC (Promega) at 37° C. for 16 hours. The digested peptides were than labeled with isobaric tandem mass tag (TMT) reagents (Thermo) as specified by the manufacturer. The labeled peptides were then combined, concentrated to remove acetonitrile, and re-suspended in 50 mM HEPES pH 8.0 containing 0.2% SDS. The labeled peptides were then treated with 100 μL Neutravidin resin as a 50% slurry (Peirce) for 16 hours at R.T. The following day, the Neutravidin resin was washed extensively with 50 mM HEPES pH 8.0 containing 0.2% SDS (3×), 50 mM HEPES pH 8.0 (5x), and double-distilled water (ddH2O) (5×). The bound peptides were then cleaved from the resin by incubating with 100 μL 10% formic acid for 30 minutes (2×).
Quantitative proteomics by two-dimensional nano liquid chromatography-tandem mass spectrometry (nLC-MS/MS): For protein-level characterization, the TMT-labeled sample were reconstituted in 0.1% formic acid (FA)/2% acetonitrile for offline high-pH reversed phase separation (RP10) using a Dionex UltiMate 3000 high-performance liquid chromatography (HPLC) system with fraction collection using Chromeleon v.6.8 (Thermo) software. Separation was achieved on a Waters Xbridge C18 3.5 μm 2.1×150 mm HPLC column (Waters) using a flow rate of 250 μL min-1 and the following ternary gradient and conditions: mobile phase A=water (HPLC grade), mobile phase B=acetonitrile (HPLC grade), and mobile phase C=200 mM ammonium acetate, pH 10. […]

The mark [1] stands for this setting: about 100 μM probe, 60 min 37° C., 440 nm 20 min 4° C.

Counter-ions that a name gives are not always drawn.

With `COc1ccc2cc(-c3cc(C)[n+](N(C)C(=O)OCCCCCCN=[N+]=[N-])c(C)c3)ccc2c1` [Pyridinium salt 2d, 1-((((6-azidohexyl)oxy)carbonyl)(methyl)amino)-4-(6-methoxynaphthalen-2-yl)-2,6-dimethylpyridin-1-ium tetrafluoroborate], the “probe concentration giving measurable two-fold enrichment of Trp-modified peptides” value (440 nm photoirradiation) is “about 10 μM”. In addition, under setting [1], the “number of Trp-modified peptide fragments showing dose-response behavior” value was found to be 290 and the “number of unique proteins corresponding to Trp-modified peptide fragments” value was determined as 209. For the same compound, the “number of unique peptides harboring a tryptophan modification” value (chemoselectivity profile, in situ) is on record as 221. For the same compound, under “inferred from subcellular localization of labeled proteins”, the plasma membrane permeation result is “readily crosses the plasma membrane”. Moreover, the “thermal stability under whole cell culture conditions” value (no peptide enrichment without 440 nm photoirradiation) is on record as “robust thermal stability”. In addition, for the setting “versus His, Tyr, Cys modifications, in situ”, the “selectivity for tryptophan, relative amino acid frequency taken into account” value is “about 82%”.
